#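 Protocol summary: plate cells (96-well), add compound at 5 concentrations, incubate 48 h, interpolate endpoints linearly. At the GI50, growth is halved.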 Calls of active or inactive are those of the source. No stated cut-off is given here; in the data, active = GI50 up to about 1.1 µM and inactive = higher.
# Columns and labels:
# Assay in all cases: growth of human tumour cells (NCI), 48 h
# HCC 2998 = system: HCC 2998
# HOP-62 = system: HOP-62
# M14 = system: M14
# HL-60 = system: HL-60
# K562 = system: K562
# LOX IMVI = system: LOX IMVI
# RPMI-8226 = system: RPMI-8226
# NCI-H460 = system: NCI-H460
# IGROV-1 = system: IGROV-1
# OVCAR-4 = system: OVCAR-4
# HCT-15 = system: HCT-15
# COLO 205 = system: COLO 205
# Malme-3M = system: Malme-3M
# SNB-19 = system: SNB-19
# CAKI-1 = system: CAKI-1
# UACC-257 = system: UACC-257
# UO-31 = system: UO-31
# EKVX = system: EKVX
# MOLT-4 = system: MOLT-4
# XF498 = system: XF498
# NCI-H23 = system: NCI-H23
# OVCAR-3 = system: OVCAR-3
# CCRF-CEM = system: CCRF-CEM
# M19-MEL = system: M19-MEL
# HOP-92 = system: HOP-92
# NCI-H522 = system: NCI-H522
# 786-0 = system: 786-0
# HT-29 = system: HT-29
# KM-20L2 = system: KM-20L2
# SK-OV-3 = system: SK-OV-3
# SW-620 = system: SW-620
# A549 = system: A549
# LXFL 529 = system: LXFL 529
# ACHN = system: ACHN
# SN12C = system: SN12C
# SF-295 = system: SF-295
# KM12 = system: KM12
# OVCAR-5 = system: OVCAR-5
# U-251 = system: U-251
# A498 = system: A498
# SF-539 = system: SF-539
# NCI-H226 = system: NCI-H226
# OVCAR-8 = system: OVCAR-8
# SK-MEL-2 = system: SK-MEL-2
# TK-10 = system: TK-10
# DLD-1 = system: DLD-1
# RXF 631 = system: RXF 631
# HOP-18 = system: HOP-18
# SNB-78 = system: SNB-78
# SNB-75 = system: SNB-75
# SK-MEL-5 = system: SK-MEL-5
# SK-MEL-28 = system: SK-MEL-28
# SF-268 = system: SF-268
# DMS-114 = system: DMS-114
# UACC-62 = system: UACC-62
# DMS-273 = system: DMS-273
# HCT-116 = system: HCT-116
# RXF 393 = system: RXF 393
structure (smiles),measurement,setting,value
COc1ccc(NC(=O)/C(=C/c2ccccc2)C(C)=O)cc1,GI50,HCC 2998,18.9 µM (inactive)
same,GI50,HOP-62,18 µM (inactive)
same,GI50,M14,12.9 µM (inactive)
same,GI50,HL-60,3.39 µM (inactive)
same,GI50,K562,12.5 µM (inactive)
same,GI50,LOX IMVI,10.7 µM (inactive)
same,GI50,RPMI-8226,5.24 µM (inactive)
same,GI50,NCI-H460,21.6 µM (inactive)
same,GI50,IGROV-1,17.5 µM (inactive)
same,GI50,OVCAR-4,11.6 µM (inactive)
same,GI50,HCT-15,13.2 µM
same,GI50,COLO 205,19.1 µM (inactive)
same,GI50,Malme-3M,16.5 µM (inactive)
same,GI50,SNB-19,16.2 µM (inactive)
same,GI50,CAKI-1,15.4 µM (inactive)
same,GI50,UACC-257,13.3 µM (inactive)
same,GI50,UO-31,15.4 µM (inactive)
same,GI50,EKVX,22.5 µM (inactive)
same,GI50,MOLT-4,11.4 µM (inactive)
same,GI50,XF498,16.2 µM (inactive)
same,GI50,NCI-H23,> 10 µM (inactive)
same,GI50,OVCAR-3,16.3 µM (inactive)
same,GI50,CCRF-CEM,6.12 µM (inactive)
same,GI50,M19-MEL,14.3 µM (inactive)
same,GI50,HOP-92,15.8 µM (inactive)
same,GI50,NCI-H522,1.73 µM (inactive)
same,GI50,786-0,14.8 µM (inactive)
same,GI50,HT-29,13.3 µM (inactive)
same,GI50,KM-20L2,14.3 µM (inactive)
same,GI50,SK-OV-3,40.2 µM (inactive)
same,GI50,SW-620,16.2 µM (inactive)
same,GI50,A549,22.2 µM (inactive)
same,GI50,LXFL 529,12.4 µM (inactive)
same,GI50,ACHN,20.7 µM (inactive)
same,GI50,SN12C,14.4 µM (inactive)
same,GI50,SF-295,14.2 µM (inactive)
same,GI50,KM12,12.4 µM (inactive)
same,GI50,OVCAR-5,19.6 µM (inactive)
same,GI50,U-251,15.2 µM (inactive)
same,GI50,A498,21.1 µM (inactive)
same,GI50,SF-539,15.3 µM (inactive)
same,GI50,NCI-H226,19.2 µM (inactive)
same,GI50,OVCAR-8,18.1 µM (inactive)
same,GI50,SK-MEL-2,14.6 µM (inactive)
same,GI50,TK-10,20.3 µM (inactive)
same,GI50,DLD-1,12.8 µM (inactive)
same,GI50,RXF 631,15.7 µM (inactive)
same,GI50,HOP-18,13.5 µM (inactive)
same,GI50,SNB-78,15.5 µM (inactive)
same,GI50,SNB-75,7.11 µM (inactive)
same,GI50,SK-MEL-5,13.9 µM (inactive)
same,GI50,SK-MEL-28,12.9 µM (inactive)
same,GI50,SF-268,15.2 µM (inactive)
same,GI50,DMS-114,15.2 µM (inactive)
same,GI50,UACC-62,7.89 µM (inactive)
same,GI50,DMS-273,13.7 µM (inactive)
CCc1ccccc1NC(=O)c1cccc([N+](=O)[O-])c1O,GI50,HCC 2998,24.7 µM (inactive)
same,GI50,HOP-62,19 µM (inactive)
same,GI50,M14,47.5 µM (inactive)
same,GI50,HL-60,30.6 µM (inactive)
same,GI50,K562,40.4 µM (inactive)
same,GI50,LOX IMVI,16.3 µM (inactive)
same,GI50,RPMI-8226,5.41 µM (inactive)
same,GI50,NCI-H460,20.8 µM (inactive)
same,GI50,HCT-116,24.2 µM (inactive)
same,GI50,IGROV-1,23 µM (inactive)
same,GI50,OVCAR-4,16.7 µM (inactive)
same,GI50,HCT-15,25.8 µM
same,GI50,COLO 205,17.2 µM (inactive)
same,GI50,Malme-3M,24.4 µM (inactive)
same,GI50,SNB-19,41.7 µM (inactive)
same,GI50,CAKI-1,25.1 µM (inactive)
same,GI50,UACC-257,19.9 µM (inactive)
same,GI50,UO-31,22.2 µM (inactive)
same,GI50,EKVX,30.8 µM (inactive)
same,GI50,RXF 393,8.51 µM (inactive)
same,GI50,MOLT-4,18.6 µM (inactive)
same,GI50,XF498,20.4 µM (inactive)
same,GI50,NCI-H23,18.7 µM (inactive)
same,GI50,OVCAR-3,26.7 µM (inactive)
same,GI50,CCRF-CEM,28.2 µM (inactive)
same,GI50,M19-MEL,23.6 µM (inactive)
same,GI50,HOP-92,14.4 µM (inactive)
same,GI50,NCI-H522,21 µM (inactive)
same,GI50,786-0,71.6 µM (inactive)
same,GI50,HT-29,26.5 µM (inactive)
same,GI50,KM-20L2,24.7 µM (inactive)
same,GI50,SK-OV-3,25 µM (inactive)
same,GI50,SW-620,38.4 µM (inactive)
same,GI50,A549,24.8 µM (inactive)
same,GI50,LXFL 529,36.4 µM (inactive)
same,GI50,ACHN,18.1 µM (inactive)
same,GI50,SN12C,31 µM (inactive)
same,GI50,SF-295,5.18 µM (inactive)
same,GI50,KM12,18.1 µM (inactive)
same,GI50,OVCAR-5,17.9 µM (inactive)
same,GI50,U-251,23 µM (inactive)
same,GI50,A498,25.3 µM (inactive)
same,GI50,SF-539,> 100 µM (inactive)
same,GI50,NCI-H226,29 µM (inactive)
same,GI50,OVCAR-8,46.7 µM (inactive)
same,GI50,DLD-1,26.7 µM (inactive)
same,GI50,RXF 631,23.7 µM (inactive)
same,GI50,HOP-18,66.5 µM (inactive)
same,GI50,SNB-78,37.8 µM (inactive)
same,GI50,SNB-75,20.9 µM (inactive)
same,GI50,SK-MEL-5,8.89 µM (inactive)
same,GI50,SK-MEL-28,28.2 µM (inactive)
same,GI50,SF-268,25.2 µM (inactive)
same,GI50,DMS-114,17.2 µM (inactive)
same,GI50,UACC-62,9.93 µM (inactive)
same,GI50,DMS-273,22.1 µM (inactive)
COc1ccc(C2C(C(=O)O)=C(CO)Oc3cc4c(cc32)OCO4)c(OC)c1 (stereo unspecified),GI50,HOP-62,18.8 µM (inactive)
same,GI50,M14,> 100 µM (inactive)
same,GI50,HL-60,> 100 µM (inactive)
same,GI50,K562,87.5 µM (inactive)
same,GI50,LOX IMVI,45.1 µM (inactive)
same,GI50,RPMI-8226,> 100 µM (inactive)
same,GI50,NCI-H460,> 100 µM (inactive)
same,GI50,HCT-116,78.2 µM (inactive)
same,GI50,IGROV-1,> 100 µM (inactive)
same,GI50,OVCAR-4,78 µM (inactive)
same,GI50,HCT-15,67.9 µM
same,GI50,COLO 205,68.7 µM (inactive)
same,GI50,Malme-3M,> 100 µM (inactive)
same,GI50,SNB-19,70.5 µM (inactive)
same,GI50,CAKI-1,88.1 µM (inactive)
same,GI50,UACC-257,> 100 µM (inactive)
same,GI50,UO-31,36.9 µM (inactive)
same,GI50,EKVX,> 100 µM (inactive)
same,GI50,RXF 393,> 100 µM (inactive)
same,GI50,MOLT-4,22.5 µM (inactive)
same,GI50,XF498,9.73 µM (inactive)
same,GI50,NCI-H23,> 100 µM (inactive)
same,GI50,OVCAR-3,57.5 µM (inactive)
same,GI50,CCRF-CEM,31 µM (inactive)
same,GI50,M19-MEL,60.4 µM (inactive)
same,GI50,HOP-92,> 100 µM (inactive)
same,GI50,786-0,> 100 µM (inactive)
same,GI50,HT-29,67.6 µM (inactive)
same,GI50,KM-20L2,> 100 µM (inactive)
same,GI50,SK-OV-3,> 100 µM (inactive)
same,GI50,SW-620,> 100 µM (inactive)
same,GI50,A549,70.3 µM (inactive)
same,GI50,ACHN,63.1 µM (inactive)
same,GI50,SN12C,43.1 µM (inactive)
same,GI50,SF-295,62.7 µM (inactive)
same,GI50,U-251,81.1 µM (inactive)
same,GI50,SF-539,70 µM (inactive)
same,GI50,OVCAR-8,98.4 µM (inactive)
same,GI50,TK-10,> 100 µM (inactive)
same,GI50,DLD-1,54.7 µM (inactive)
same,GI50,RXF 631,87.3 µM (inactive)
same,GI50,HOP-18,98.2 µM (inactive)
same,GI50,SNB-78,> 100 µM (inactive)
same,GI50,SNB-75,> 100 µM (inactive)
same,GI50,SK-MEL-5,42.8 µM (inactive)
same,GI50,SK-MEL-28,46.2 µM (inactive)
same,GI50,DMS-114,84.5 µM (inactive)
same,GI50,UACC-62,57.3 µM (inactive)
same,GI50,DMS-273,60.3 µM (inactive)
